Laboratory results taken from paper PMC10902181 (Journal of neurochemistry, 2023).

How the values were obtained:
WT GluN1/GluN2A [1] = biological target: T1, WT GluN1/GluN2A (Homo sapiens, UniProt Q05586+Q12879); assay: Current-voltage curves; conditions: WT 2A, 1 mM Mg^2+ alone
GluN1/GluN2A-L611Q [2] = biological target: T2, GluN1/GluN2A-L611Q (Homo sapiens, UniProt Q05586+Q12879, L611Q); assay: Current-voltage curves; conditions: 2A-L611Q, 1 mM Mg^2+ alone
WT GluN1/GluN2B [3] = biological target: T3, WT GluN1/GluN2B (Homo sapiens, UniProt Q05586+Q13224); assay: Current-voltage curves; conditions: WT 2B, 1 mM Mg^2+ alone
GluN1/GluN2B-V620M = GluN1/GluN2B-V620M (Homo sapiens, UniProt Q05586+Q13224, V620M); assay: Current-voltage curves; conditions: 2B-V620M
WT GluN1/GluN2A [4] = biological target: T1, WT GluN1/GluN2A; assay: TEVC current recordings from Xenopus oocytes, channel blocker inhibition; type: cell-based; conditions: WT GluN1/WT 2A, 100 μM blocker, −40 mV
GluN1-G620R/GluN2A = GluN1-G620R/GluN2A (Homo sapiens, UniProt Q05586+Q12879, G620R); assay: as above; type: cell-based; conditions: for % inhibition: 1-G620R/2A, 100 μM blocker, −40 mV
GluN1/GluN2A-L611Q [5] = biological target: T2, GluN1/GluN2A-L611Q; assay: as above; type: cell-based; conditions: for % inhibition: 2A-L611Q, 100 μM blocker, −40 mV
[6] = biological target: GluN2A-N614S-containing NMDARs (Homo sapiens, UniProt Q05586+Q12879, N614S); assay: as above; type: cell-based; conditions: for % inhibition: 2A-N614S, 100 μM blocker, −40 mV
[7] = biological target: GluN2A-N615K-containing NMDARs (Homo sapiens, UniProt Q05586+Q12879, N615K); assay: as above; type: cell-based; conditions: 2A-N615K, 100 μM blocker, −40 mV
WT GluN1/GluN2B [8] = biological target: T3, WT GluN1/GluN2B; assay: as above; type: cell-based; conditions: WT GluN1/WT 2B, 100 μM blocker, −40 mV
[9] = biological target: GluN2B-W607C-containing NMDARs (Homo sapiens, UniProt Q05586+Q13224, W607C); assay: as above; type: cell-based; conditions: 2B-W607C, 100 μM blocker, −40 mV
[10] = biological target: GluN2B-G611V-containing NMDARs (Homo sapiens, UniProt Q05586+Q13224, G611V); assay: as above; type: cell-based; conditions: 2B-G611V, 100 μM blocker, −40 mV
GluN1/GluN2B-N615I = GluN1/GluN2B-N615I (Homo sapiens, UniProt Q05586+Q13224, N615I); assay: as above; type: cell-based; conditions: for % inhibition: 2B-N615I, 100 μM blocker, −40 mV
GluN1/GluN2B-N615K = GluN1/GluN2B-N615K (Homo sapiens, UniProt Q05586+Q13224, N615K); assay: as above; type: cell-based; conditions: 2B-N615K, 100 μM blocker, −40 mV
[11] = biological target: GluN2B-N616K-containing NMDARs (Homo sapiens, UniProt Q05586+Q13224, N616K); assay: as above; type: cell-based; conditions: 2B-N616K, 100 μM blocker, −40 mV
[12] = biological target: GluN2B-V618G-containing NMDARs (Homo sapiens, UniProt Q05586+Q13224, V618G); assay: as above; type: cell-based; conditions: 2B-V618G, 100 μM blocker, −40 mV
[13] = biological target: GluN2B-V620M-containing NMDARs (Homo sapiens, UniProt Q05586+Q13224, V620M); assay: as above; type: cell-based; conditions: 2B-V620M, 100 μM blocker, −40 mV

With `[Mg+2]` [Mg^2+] the “z δ” value (WT GluN1/GluN2A [1]) was 1.97, the Kd (WT GluN1/GluN2A [1]; read-out: KD, 0 mV) was 1520 µM and the “z δ” value (GluN1/GluN2A-L611Q [2]) was 1.21. The Kd (GluN1/GluN2A-L611Q [2]; read-out: KD, 0 mV) was 13000 µM, the “z δ” value (WT GluN1/GluN2B [3]) was 1.96 and the Kd (WT GluN1/GluN2B [3]; read-out: KD, 0 mV) was 1830 µM. The “z δ” value (GluN1/GluN2B-V620M; 1 mM Mg^2+ alone) was 1.47 and the Kd (GluN1/GluN2B-V620M; read-out: KD, 0 mV, 1 mM Mg^2+ alone) was 3930 µM.
For `CC12CC3CC(C)(C1)CC(N)(C3)C2` [memantine], the “% inhibition” value (WT GluN1/GluN2A [4]; w/ 1 mM Mg^2+) was 89 ± 1.3% (30), the “% inhibition” value (WT GluN1/GluN2A [4]; w/o Mg^2+) was 94 ± 1.2% (15) and the “% inhibition” value (GluN1-G620R/GluN2A; w/ 1 mM Mg^2+) was 98 ± 0.4 (8) %. For the same compound, the “% inhibition” value (GluN1-G620R/GluN2A; w/o Mg^2+) was 96 ± 1.3% (8), the “increased potency in 1 mM Mg^2+ compared to the same variant in the absence of Mg^2+” value (GluN1-G620R/GluN2A; GluN1-G620R) was 2.4 fold and the “enhanced potency in comparison to WT NMDARs” value (GluN1-G620R/GluN2A; GluN1-G620R, absence of Mg^2+) was 2.7 fold. The “enhanced potency compared to the WT receptors” value (GluN1-G620R/GluN2A; GluN1-G620R, presence of 1 mM Mg^2+) was 17 fold, the “% inhibition” value (GluN1/GluN2A-L611Q [5]; w/ 1 mM Mg^2+) was 94 ± 0.6% (9) and the “% inhibition” value (GluN1/GluN2A-L611Q [5]; w/o Mg^2+) was 87 ± 2.1% (12). The “increased potency in 1 mM Mg^2+ compared to the same variant in the absence of Mg^2+” value (GluN1/GluN2A-L611Q [5]; GluN2A-L611Q) was 3.1 fold, the “enhanced potency compared to the WT receptors” value (GluN1/GluN2A-L611Q [5]; GluN2A-L611Q, presence of 1 mM Mg^2+) was 3.7 fold and the “% inhibition” value ([6]; w/ 1 mM Mg^2+) was 25 ± 6.1% (10) ^*^¥. The “% inhibition” value ([6]; w/o Mg^2+) was 60 ± 4.1% (9)^¥, the “reduced sensitivity compared to the WT receptors” value ([6]; GluN2A-N614S, presence of 1 mM Mg^2+) was 9 fold and the “% inhibition” value ([7]; w/ 1 mM Mg^2+) was 81 ± 1.6% (8) ^*^¥. The “% inhibition” value ([7]; w/o Mg^2+) was 90 ± 2.5% (7), the “% inhibition” value (WT GluN1/GluN2B [8]; w/ 1 mM Mg^2+) was 93 ± 0.8% (26) and the “% inhibition” value (WT GluN1/GluN2B [8]; w/o Mg^2+) was 97 ± 1.1% (18). The “% inhibition” value ([9]; w/ 1 mM Mg^2+) was 92 ± 2.8% (11), the “% inhibition” value ([9]; w/o Mg^2+) was 91 ± 2.0% (10) and the “% inhibition” value ([10]; w/ 1 mM Mg^2+) was 97 ± 1.2% (14). For the same compound, the “% inhibition” value ([10]; w/o Mg^2+) was 95 ± 1.4% (10), the “% inhibition” value (GluN1/GluN2B-N615I; w/ 1 mM Mg^2+) was 98 ± 0.7% (13) and the “% inhibition” value (GluN1/GluN2B-N615I; w/o Mg^2+) was 96 ± 1.1% (11). For the same compound, the “enhanced potency in comparison to WT NMDARs” value (GluN1/GluN2B-N615I; GluN2B-N615I, absence of Mg^2+) was 4.3 fold, the “enhanced potency compared to the WT receptors” value (GluN1/GluN2B-N615I; GluN2B-N615I, presence of 1 mM Mg^2+) was 7.2 fold and the “% inhibition” value (GluN1/GluN2B-N615K; w/ 1 mM Mg^2+) was 12 ± 1.9% (21) ^*^¥. For the same compound, the “% inhibition” value (GluN1/GluN2B-N615K; w/o Mg^2+) was 22 ± 2.5% (14)^¥, the “% inhibition” value ([11]; w/ 1 mM Mg^2+) was 88 ± 1.6% (24)^¥ and the “% inhibition” value ([11]; w/o Mg^2+) was 93 ± 1.8% (7). For the same compound, the “% inhibition” value ([12]; w/ 1 mM Mg^2+) was 87 ± 2.1% (14)^¥, the “% inhibition” value ([12]; w/o Mg^2+) was 85 ± 1.5% (16)^¥ and the “% inhibition” value ([13]; w/ 1 mM Mg^2+) was 95 ± 0.7% (7). The “% inhibition” value ([13]; w/o Mg^2+) was 96 ± 0.7% (8), the “z δ (apparent, combined block)” value (GluN1/GluN2B-V620M; 1 mM Mg^2+ + 0.3 μM memantine) was 1.54 and the “z δ (apparent, combined block)” value (GluN1/GluN2B-V620M; 1 mM Mg^2+ + 1.0 μM memantine) was 1.52. For the same compound, the “z δ (apparent, combined block)” value (GluN1/GluN2B-V620M; 1 mM Mg^2+ + 3.0 μM memantine) was 1.38 and the “z δ (apparent, combined block)” value (GluN1/GluN2B-V620M; 1 mM Mg^2+ + 10 μM memantine) was 1.28.
